From patent publication US12419307B2, “Mixtures comprising indazole pesticides” (FMC Corporation, priority 2019, dated 2025)
Where two headings read alike, the source gives them in different places.

Legend:
Type in all cases: in vivo
[1] = system: corn planthopper (Peregrinus maidis (Ashmead)); experiment: Test C: corn planthopper control on corn plants, insect mortality after 6 days; details: Peregrinus maidis, read-out: % Mortality (obs)
Description: (§1) The pest control protection afforded by the mixtures or compositions is not limited, however, to these species. The analysis of enhanced activity between the mixtures or compositions was determined using Colby's equation. The average % mortality data for the test compounds alone were inserted into the Colby's equation. If the observed (obs) average % mortality was higher than “p”, the expected (exp) % mortality, the mixture or composition had enhanced effects. If the observed average % mortality was equal to or lower than the expected mortality, the mixture or composition either had no enhanced effect. For bioassays where insect feeding damage was evaluated, enhanced activity is identified when the observed plant damage is less than the expected plant damage rating; ratings ranged between 0 (no damage) and 10 (dead plant) and each value was converted to a % plant protection. 100−(Obs Plant Damage*10)
For evaluating control of corn planthopper (Peregrinus maidis (Ashmead)) through contact and/or systemic means, the test unit consisted of a small open container with a 3-4-day-old corn (maize) plant inside. White sand was added to the top of the soil prior to application of the test compound.
Test compounds were formulated and sprayed at 250 and/or 50 ppm and/or 10 ppm. After spraying of the formulated test compound, the test units were allowed to dry for 1 h before they were post-infested with ˜15-20 nymphs (18-to-21-day-old). […]

[2] = system: Potato Leafhopper (Empoasca fabae Harris); experiment: Test C: Potato Leafhopper control on bean plants, insect mortality after 6 days; details: read-out: % Mortality (obs)
Description: as §1
For evaluating control of Potato Leafhopper (Empoasca fabae Harris) through contact and/or systemic means, each test unit consisted of a small open container with a 5- to 6-day-old Longio bean plant (primary leaves emerged) inside. White sand was added to the top of the soil, and one of the primary leaves was excised prior to application. Test compounds were formulated and sprayed with 3 replications as described for Test A. After spraying, the test units were allowed to dry for 1 hour before they were infested with 5 potato leafhoppers (18- to 21-day-old adults). A black, screened cap was placed on the top of each container. The test units were held for 6 days in a growth chamber at 19-21° C. and 50-70% relative humidity.

[3] = system: cotton melon aphid (Aphis gossypii Glover); experiment: Test D: cotton melon aphid control on okra plants, insect mortality after 6 days; details: Aphis gossypii, read-out: % Mortality (obs)
Description: The analysis of enhanced activity between the mixtures or compositions was determined using Colby's equation. The average % mortality data for the test compounds alone were inserted into the Colby's equation. If the observed (obs) average % mortality was higher than “p”, the expected (exp) % mortality, the mixture or composition had enhanced effects. If the observed average % mortality was equal to or lower than the expected mortality, the mixture or composition either had no enhanced effect. For bioassays where insect feeding damage was evaluated, enhanced activity is identified when the observed plant damage is less than the expected plant damage rating; ratings ranged between 0 (no damage) and 10 (dead plant) and each value was converted to a % plant protection. 100−(Obs Plant Damage*10)
For evaluating control of cotton melon aphid (Aphis gossypii Glover) through contact and/or systemic means, each test unit consisted of a small open container with a 6- to 7-day-old okra plant inside. This was pre-infested by placing on a leaf of the test plant 30 to 40 aphids on a piece of leaf excised from a culture plant (cut-leaf method). The […] moved onto the test plant as the leaf piece desiccated. After pre-infestation, the soil of the test unit was covered with a layer of sand.
Test compounds were formulated and sprayed as described for Test A. The applications were replicated three times. After spraying of the formulated test compounds, each test unit was allowed to dry for 1 hour and then a black, screened cap was placed on top. […]

[4] = system: diamondback moth (Plutella xylostella L.); experiment: Test E: diamondback moth control on mustard plants, contact and/or systemic, plant damage rating after 6 days
Description: as §1
For evaluating control of diamondback moth (Plutella xylostella L.) through contact and/or systemic means, each test unit consisted of a small open container with a 10- to 12-day-old mustard plant inside. Test compounds were formulated and sprayed with 3 replications as described for Test A. After spraying, the test units were allowed to dry for 1 hour before they were infested with 30-50 neonate larvae. A black, screened cap was placed on the top of each container. The test units were held for 6 days in a growth chamber at 24-25° C. and 70% relative humidity. Each test unit was then visually assessed for plant damage and rated 0-10, where 0=undamaged and 10=plant is dead; the results are listed in Tables 6a-b.

[5] = system: fall armyworm (Spodoptera frugiperda (J. E. Smith)); experiment: Test E: fall armyworm control on corn plants, plant damage rating and mortality after 6 days; details: Spodoptera frugiperda, 144 h, read-out: Plant Protection (obs)
Description: as §1
For evaluating control of fall armyworm (Spodoptera frugiperda (J. E. Smith)) the test unit consisted of a small open container with a 4-5-day-old corn (maize) plant inside. This was pre-infested with 10-15 1-day-old larvae on a piece of insect diet. Test compounds were formulated and sprayed with 3 replications as described for Test A. After spraying of the formulated test compound, the test units were maintained in a growth chamber for 6 days at 25° C. and 70% relative humidity. Plant feeding damage was then visually assessed based on foliage consumed, and larvae were assessed for mortality. Each test unit was then visually assessed for plant damage and rated 0-10, where 0=undamaged and 10=plant is dead; the results are listed in Tables 6d-i.

Work on `CSCC(C)(C)NC(=O)c1ccc(F)c2nn(-c3cccnc3)cc12` [Cpd 1, N-[1,1-dimethyl-2-(methylthio)ethyl]-7-fluoro-2-(3-pyridinyl)-2H-indazole-4-carboxamide] yielded a mortality at 50 ppm ([1]; 96 h, Table 4d) of 14.8%, a mortality at 250 ppm ([1]; 96 h, Table 4d) of 45.8% and a mortality at 50 ppm ([1]; Table 4e) of 18.9%. The mortality at 250 ppm ([1]; Table 4e) was 7.6%, the mortality at 50 ppm ([2]; Table 4a) was 60% and the mortality at 250 ppm ([2]; Table 4a) was 35.7%. For the same molecule, the mortality at 50 ppm ([2]; Table 4b) was 20%, the mortality at 250 ppm ([2]; Table 4b) was 6.7% and the mortality at 50 ppm ([2]; Table 4c) was 6.7%. The mortality at 250 ppm ([2]; Table 4c) was 33.3%, the mortality at 0.08 ppm ([3]; 5 h, Table 5h) was 37.3% and the mortality at 0.12 ppm ([3]; 5 h, Table 5h) was 50.5%. It also gave a mortality at 0.08 ppm ([3]; 120 h, Table 5d) of 23.8%, a mortality at 0.12 ppm ([3]; 120 h, Table 5d) of 49.8% and a mortality at 0.08 ppm ([3]; Table 5a) of 23.8%. It also gave a mortality at 0.12 ppm ([3]; Table 5a) of 49.8%, a mortality at 0.08 ppm ([3]; Table 5b) of 23.8% and a mortality at 0.12 ppm ([3]; Table 5b) of 49.8%. The mortality at 0.08 ppm ([3]; Table 5c) was 100%, the mortality at 0.12 ppm ([3]; Table 5c) was 26.7% and the mortality at 0.08 ppm ([3]; Table 5e) was 21.3%. It also gave a mortality at 0.12 ppm ([3]; Table 5e) of 35.3%, a mortality at 0.08 ppm ([3]; Table 5f) of 20.8% and a mortality at 0.12 ppm ([3]; Table 5f) of 39.4%. The mortality at 0.08 ppm ([3]; Table 5g) was 29.1%, the mortality at 0.12 ppm ([3]; Table 5g) was 35.9% and the “Plant Protection (obs)” value ([4]; Table 6a, 50 ppm) was 0.0. For the same molecule, the “Plant Protection (obs)” value ([4]; Table 6a, 250 ppm) was 0.0, the “Plant Protection (obs)” value ([4]; Table 6b, 50 ppm) was 0.0 and the “Plant Protection (obs)” value ([4]; Table 6b, 250 ppm) was 0.0. For the same molecule, the pest or weed control at 50 ppm ([5]; Table 6e) was 0% and the pest or weed control at 250 ppm ([5]; Table 6e) was 0%.

`O=C(NC1(C(F)F)CC1)c1cccc2nn(-c3cccnc3)cc12` [Cpd 5, N-[1-(difluoromethyl)cyclopropyl]-2-(3-pyridinyl)-2H-indazole-4-carboxamide] gave a mortality at 50 ppm ([1]; 96 h, Table 4d) of 5.3%, a mortality at 250 ppm ([1]; 96 h, Table 4d) of 75% and a mortality at 50 ppm ([1]; Table 4e) of 21.6%. It also gave a mortality at 250 ppm ([1]; Table 4e) of 13.1%, a mortality at 50 ppm ([1]; Table 4f) of 15.3% and a mortality at 250 ppm ([1]; Table 4f) of 22.4%. The mortality at 50 ppm ([1]; Table 4g) was 15.3%, the mortality at 250 ppm ([1]; Table 4g) was 22.4% and the mortality at 50 ppm ([2]; Table 4a) was 0%. It also gave a mortality at 250 ppm ([2]; Table 4a) of 26.7%, a mortality at 50 ppm ([2]; Table 4b) of 0% and a mortality at 250 ppm ([2]; Table 4b) of 6.7%. The mortality at 50 ppm ([2]; Table 4c) was 6.7%, the mortality at 250 ppm ([2]; Table 4c) was 26.7% and the mortality at 0.12 ppm ([3]; 5 h, Table 5h) was 40%. It also gave a mortality at 0.18 ppm ([3]; 5 h, Table 5h) of 68.4%, a mortality at 0.12 ppm ([3]; 120 h, Table 5d) of 34% and a mortality at 0.18 ppm ([3]; 120 h, Table 5d) of 62.7%. For the same molecule, the mortality at 0.12 ppm ([3]; Table 5a) was 34%, the mortality at 0.18 ppm ([3]; Table 5a) was 62.7% and the mortality at 0.12 ppm ([3]; Table 5b) was 34%. It also gave a mortality at 0.18 ppm ([3]; Table 5b) of 62.7%, a mortality at 0.12 ppm ([3]; Table 5c) of 73.3% and a mortality at 0.18 ppm ([3]; Table 5c) of 6.7%. It also gave a mortality at 0.12 ppm ([3]; Table 5e) of 32.2%, a mortality at 0.18 ppm ([3]; Table 5e) of 61.6% and a mortality at 0.12 ppm ([3]; Table 5f) of 44.9%. For the same molecule, the mortality at 0.18 ppm ([3]; Table 5f) was 58.9%, the mortality at 0.12 ppm ([3]; Table 5g) was 25.8% and the mortality at 0.18 ppm ([3]; Table 5g) was 44.3%. For the same molecule, the mortality at 0.12 ppm ([3]; Table 5i) was 41.6%, the mortality at 0.18 ppm ([3]; Table 5i) was 70.3% and the mortality at 0.12 ppm ([3]; Table 5j) was 41.6%. For the same molecule, the mortality at 0.18 ppm ([3]; Table 5j) was 70.3%, the mortality at 0.12 ppm ([3]; Table 5k) was 35.9% and the mortality at 0.18 ppm ([3]; Table 5k) was 67.2%. The mortality at 0.12 ppm ([3]; Table 5l) was 35.9%, the mortality at 0.18 ppm ([3]; Table 5l) was 67.2% and the mortality at 0.12 ppm ([3]; Table 5m) was 37.3%. For the same molecule, the mortality at 0.18 ppm ([3]; Table 5m) was 61.7%, the mortality at 0.12 ppm ([3]; Table 5n) was 48.9% and the mortality at 0.18 ppm ([3]; Table 5n) was 77.7%. The “Plant Protection (obs)” value ([4]; Table 6a, 50 ppm) was 0.0, the “Plant Protection (obs)” value ([4]; Table 6a, 250 ppm) was 0.0 and the “Plant Protection (obs)” value ([4]; Table 6b, 50 ppm) was 0.0. For the same molecule, the “Plant Protection (obs)” value ([4]; Table 6b, 250 ppm) was 0.0, the pest or weed control at 50 ppm ([5]; Table 6e) was 0% and the pest or weed control at 250 ppm ([5]; Table 6e) was 0%. The pest or weed control at 50 ppm ([5]; Table 6f) was 0%, the pest or weed control at 250 ppm ([5]; Table 6f) was 0% and the pest or weed control at 50 ppm ([5]; Table 6g) was 0%. For the same molecule, the pest or weed control at 250 ppm ([5]; Table 6g) was 0%, the pest or weed control at 50 ppm ([5]; Table 6i) was 0% and the pest or weed control at 250 ppm ([5]; Table 6i) was 13.3%. The pest or weed control at 50 ppm ([5]; Table 6h) was 0%, the pest or weed control at 250 ppm ([5]; Table 6h) was 0% and the pest or weed control at 50 ppm ([5]; Table 6d) was 0%. For the same molecule, the pest or weed control at 250 ppm ([5]; Table 6d) was 13.3%.
